Biological target: T1, Tyrosine-protein phosphatase non-receptor type 11 (Homo sapiens, UniProt Q06124)
T1 sequence (Q06124 whole entry): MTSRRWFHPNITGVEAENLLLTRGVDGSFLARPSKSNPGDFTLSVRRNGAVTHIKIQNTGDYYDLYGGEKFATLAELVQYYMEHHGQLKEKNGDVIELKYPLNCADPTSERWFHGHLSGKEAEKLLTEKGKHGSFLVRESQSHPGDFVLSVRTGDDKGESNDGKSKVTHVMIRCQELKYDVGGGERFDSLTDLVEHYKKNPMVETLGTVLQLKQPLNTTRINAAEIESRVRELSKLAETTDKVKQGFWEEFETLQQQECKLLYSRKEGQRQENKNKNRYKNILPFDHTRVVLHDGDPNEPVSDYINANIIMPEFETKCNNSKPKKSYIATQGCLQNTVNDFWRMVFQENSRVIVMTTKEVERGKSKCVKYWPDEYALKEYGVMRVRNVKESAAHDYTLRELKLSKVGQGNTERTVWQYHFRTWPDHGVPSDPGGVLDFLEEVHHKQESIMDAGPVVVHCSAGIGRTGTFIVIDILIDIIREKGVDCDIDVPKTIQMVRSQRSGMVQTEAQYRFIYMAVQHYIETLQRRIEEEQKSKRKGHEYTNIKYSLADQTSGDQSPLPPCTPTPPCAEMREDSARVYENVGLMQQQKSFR
Assay: Inhibition Assay: SHP2 is allosterically activated through binding of bis-tyrosyl-phorphorylated peptides to its Src Homology 2 (SH2) domains. The latter activation step leads to the release of the auto-inhibitory interface of SHP2, which in turn renders the SHP2 protein tyrosine phosphatase (PTP) active and available for substrate recognition and reaction catalysis. The catalytic activity of SHP2 was monitored using the surrogate substrate DiFMUP in a prompt fluorescence assay format.The inhibition of SHP2 by compounds of the disclosure (concentrations varying from 0.003-100 μM) was monitored using an assay in which 0.25 nM of SHP2 was incubated with of 0.5 μM of peptide IRS1_pY1172(dPEG8)pY1222 (sequence: H2N-LN(pY)IDLDLV(dPEG8)LST(pY)ASINFQK-amide) After 30-60 minutes incubation at 25° C., the surrogate substrate DiFMUP (Invitrogen, cat #D6567, 100 μM final) was added to the reaction and the conversion of DiFMUP to 6,8-difluoro-7-hydroxyl-4-methyl coumarin (DiFMU) was monitored continuously for 10 minutes with excitation at 355 nm and emission at 460 nm using a microplate reader (PolarStar, BMG).

IC50, < 1000 nM:
C[C@@H]1CCN(c2n[nH]c3nc(N4CCC5(CC4)CO[C@@H](C)[C@H]5N)cnc23)c2ccc(C(=O)NCc3cccnc3)nc21
C[C@@H]1OCC2(CCN(c3cnc4c(N5CC(=O)N(C)c6cnccc65)n[nH]c4n3)CC2)[C@@H]1N
C[C@@H]1OCC2(CCN(c3cnc4c(N5CCCc6nc(N7CCN(C)C(=O)C7)ccc65)n[nH]c4n3)CC2)[C@@H]1N
CC1(CN)CCN(c2cnc3c(N4CCc5c(C6CC6)cccc54)n[nH]c3n2)CC1
C[C@@H]1OCC2(CCN(c3cnc4c(N5CCNc6cnccc65)n[nH]c4n3)CC2)[C@@H]1N
C[C@@H]1OCC2(CCN(c3cnc4c(N5CCCc6c5cccc6S(=O)(=O)N(C)C)n[nH]c4n3)CC2)[C@@H]1N

Source: ChEMBL document CHEMBL5729619, “Substituted pyrazolo[3,4-b]pyrazines as SHP2 phosphatase inhibitors” (2023)
